Consider two molecules from US6831078B1, “Azetidinecarboxamide derivatives for treating CNS disorders” (Vernalis Research Limited, priority 1998, dated 2004).

In series [1] the test system is 3-MPA-Induced Seizures. Briefly: Antagonism of 3-MPA-induced seizures. The conditions noted are these: mg/kg i.v. of 3-MPA required to evoke a seizure response; test drug 30 mg/kg p.o. 60 min before 3-MPA; male T/O mice. The class given is in vivo. Here is the method:
Several animal seizure models are available for the screening and characterisation of anticonvulsant (antiepileptic) drugs, Most models employ a chemical convulsant to induce seizures and the anticonvulsant potencies of novel compounds are measured in terms of their ability to increase the dose of convulsant required to induce a seizure response (or to prolong the latency to seizure onset following a bolus dose of the convulsant). Most chemical convulsants work by blocking the neurotran […] function of gamma-aminobutyric acid (GABA), the predominant inhibitory neurotransmitter in the mammalian brain. This can be achieved by blocking the postsynaptic action of GABA using pentylenetetrazol or bicuculline, or via a presynaptic action using a GABA synthesis inhibitor to decrease GABA release into the synapse. […] Male albino […] (obtained from Tuck) weighing 28-40 g were used in these studies. […] Immediately following 3-MPA administration, each mouse was placed individually into a cage for observation. The seizure response of each animal was scored quantally as present or absent (response or non-response) during the 5 min period immediately following 3-MPA administration. A seizure response was defined as the onset of the initial clonic phase of the seizure (abrupt loss of righting reflex accompanied by vocalisation). The seizure threshold (in terms of mg/kg i.v. of 3-MPA required to evoke a seizure response) was determined in each treatment group by a sequential up/down method followed by modified probit analysis of the quantal data. […] In these studies, 3-MPA was obtained from Sigma. […] Drugs were administered in a dose volume of 10 ml/kg body weight.

The test system of series [2] is elevated zero-maze model of anxiety. The conditions noted are these: dose of 100 mg/Kg; orally by gavage 1 hour prior to zero-maze testing.
Method: Male Sprague-Dawley rats (Charles River) weighing 300-450 gm are used. Animals are group-housed (5 per cage; cage size: 40×40×20 cm) in a temperature-controlled environment (20±2° C.), under a 12 h light-dark cycle (lights on: 08:00 hours). Food and water are made freely available. Four hours prior to testing, animals are transferred to clean cages and moved to the testing room in order to habituate to the testing environment.
The maze is comprised of a black Perspex annular platform (105 cm diameter, 10 cm width) elevated to 65 cm above ground level, divided equally into four quadrants. Two opposite quadrants are enclosed by clear red Perspex walls (27 cm high) on both the inner and outer edges of the platform, while the remaining two opposite quadrants are surrounded only by a Perspex “lip” (1 cm high) which serves as a tactile guide to animals on these open areas. […]
Rats are placed on a closed quadrant and a 5 min test period is recorded on video-tape. […] Animals are scored as being in the open area when all four paws were in an open quadrant, and in the closed area only when all four paws passed over the open/closed divide. […]

Take `C#CCNC(=O)N1CC(c2ccc(F)cc2)C1` [Example 6, 3-(4-Fluorophenyl)-N-(2-propynyl)azetddine-1-carboxamide]: the “SC = Seizure threshold after treatment with test drug” value in series [1] amounted to 59.5 mg/kg. Also, the “anxiolytic activity (increase in the frequency of head dips)” value in series [2] is on record as “effective”.

The term melting point denotes the temperature, or range, at which the solid turns liquid. Molecule `C[C@@H](O)CNC(=O)N1CC(c2ccc(F)cc2)C1` [Example 7, (R)-3-(4-Fluorophenyl)-N-(2-hydroxypropyl)azetidine-1-carboxamide] displayed a melting point of 104 to 105 °C. Also, the “SC = Seizure threshold after treatment with test drug” value in series [1] is on record as 54.4 mg/kg.
